Results: patent US20200352889A1, “CYSTATHIONINE COMPOSITIONS AND METHODS OF TREATMENT FOR HEALTH CONDITIONS” (THE REGENTS OF THE UNIVERSITY OF COLORADO, A BODY CORPORATE, priority 2011, published 2020)
“Also recorded” adds a separate entry of the source.

Tested on: 293AD cells
Assay: Tunicamycin-induced cell death, LDH release and phase-contrast, 293AD cells
Assay type: cell-based, human
Description: (§1) Cells were seeded in triplicate at ˜75% confluence and pre-treated with either PPG) (5 mM), Cystathionine (1 mM) or with just complete media (DMEM, 10% FBS) as a control. After 24 hr pre-treatment, cells looked normal, with minimal floating cells. Fresh media with 1% FBS was then added to each well, the cells were further treated with Tm (either 5 or 10 ug)/ml. After 18 hr. treatment with Tunicamycin, cells were photographed under phase-contrast with a Zeiss Axiovert 25 microscope for evidence of dead floating cells. Cells from the group treated solely with tunicamycin became strikingly hyper-refringent, detached from the substratum and floated in the media. […] To further evaluate a role for cystathionine in resisting the induction of cell death by tunicamycin, cell lysis was quantified by assaying lactate dehydrogenase (LDH) release. The enzyme activity was determined spectrophotometrically and the amount of enzyme leak was expressed as a percentage of the LDH activity observed in untreated control cells.
HepG2, 293AD and a23 cells were seeded in triplicate at ˜75% confluence and were pre-treated with either propargylglycine (PPG) (5 mM) or cystathionine (5 mM) in complete media (DMEM, 10% FBS). After 24 hours, fresh media with 1% FBS was added to each well. Cells were then further treated with tunicamycin (either 5 or 10 ug/ml) for 18 hr treatment. Cells were subsequently photographed under phase-contrast with a Zeiss Axiovert 25 microscope for evidence of dead floating cells. To quantify cell death the media supernatant was collected for LDH release assay using a kit from Roche Applied Science (Cat.No.11 644 793 001) according to the manufacturer's standard protocol where cytotoxicity (%)=((experimental value-low control/(high control-low control))×100.
as §1, with “24 hr.” for “24 hr”

C#CCC(N)C(=O)O (racemic) [PPG, D,L-2-amino-4-pentynoic acid]
prevention of tunicamycin-induced cell death (LDH release) (293AD cells, tunicamycin 5 μg/ml 18 hr, 24 hr pre-treatment PPG 5 mM): largely prevented | reduction in cell death (LDH release) (293AD cells, tunicamycin 10 μg/ml 18 hr, 24 hr pre-treatment PPG 5 mM or cystathionine 1 mM, p<0.0001): 11 fold | floating dead cells (phase-contrast) (tunicamycin 18 hr after PPG or cystathionine pre-treatment): No floating dead cells were observed; also recorded: not evident
